Data taken from ChEMBL document CHEMBL1158094, “Paratunamides A-D, oxindole alkaloids from Cinnamodendron axillare” (J Nat Prod, 2006).
Values after ≈ are worked out from the molar mass of the structure shown.

System: KB
Experiment: Cytotoxicity against human KB cells
Type: functional, cell-based

Compound | IC50 [µg/mL]
C=C[C@H]1[C@H](O[C@@H]2O[C@H](CO)[C@@H](O)[C@H](O)[C@H]2O)OC=C2C(=O)N(CC[C@]3(O)C(=O)Nc4ccccc43)C(=O)C[C@H]21 [PARATUNAMIDE C] | > 10
C=C[C@H]1[C@H](O[C@@H]2O[C@H](CO)[C@@H](O)[C@H](O)[C@H]2O)OC=C2C(=O)N(CC[C@@]3(O)C(=O)Nc4ccccc43)[C@H](O)C[C@H]21 [PARATUNAMIDE D] | 6 (≈ 10.9 µM)
C=C[C@H]1[C@H](O[C@@H]2O[C@H](CO)[C@@H](O)[C@H](O)[C@H]2O)OC=C2C(=O)N(CC[C@@]3(O)C(=O)Nc4ccccc43)C(=O)C[C@H]21 [PARATUNAMIDE B] | > 10
C=C[C@H]1[C@H](O[C@@H]2O[C@H](CO)[C@@H](O)[C@H](O)[C@H]2O)OC=C2C(=O)N(CC[C@@]3(O)C(=O)Nc4ccccc43)[C@H](OC)C[C@H]21 [PARATUNAMIDE A] | > 10
